Residues, ends and D or L forms follow the SMILES beside them.
Target: T1, fibronectin ED-B (Homo sapiens, UniProt P02751)
T1 construct: After transformation of pET28b vector carrying fibronectin ED-B into BL21 cells; His-tag (N); made in house; host or cells: E. coli BL21 (pET28b)
Assay: SPR (Biacore) affinity measurement to fibronectin ED-B
Type: binding
Description: Bipodal-peptide binder peptides specific to ED-B, VEGF or nAchR which were repetitively found in DNA sequencing were synthesized from Anigen Inc. (Korea). Affinity was measured using BlAcore X instrument (Biacore AB, Uppsala, Sweden). ED-B and nAchR were immobilized on streptavidin (SA) chip (Biacore) by injecting 2,000 RU biotinylated-EDB. VEGF was immobilized on CM5 chip (Biacore) using EDC/NHS. PBS (pH 7.4) was used as a running buffer. […].
. In addition to tryptophan zipper, GB1m3 and HP7 peptide as a type of other β-hairpin backbones were synthesized to contain N-terminal sequence (HCSSAV) and C-terminal sequence (IIRLEQ) of peptide 2 which is specifically bound to ED-B (Anigen, Korea). In other words, the sequence of bipodal-peptide binder in tryptophan zipper is […] (SEQ ID NO:21), and in GB1m3and HP7 are […] (SEQ ID NO:63) and […] (SEQ ID NO:64), respectively. Affinity of each peptide was measured using BIAcore X (Biacore AB, Uppsala, Sweden). […]
A leucine zipper motif as a structure stabilizing region instead of β-hairpin structure was synthesized to contain N-terminal sequence (HCSSAV) and C-terminal sequence (IIRLEQ) of peptide 2 which is specifically bound to ED-B, producing two peptides, […] […] Both peptides were formed as dimer, and their affinities were measured using BlAcore X (Biacore AB, Uppsala, Sweden). […]

T1 sequence (P02751 1271-1359 limits assumed): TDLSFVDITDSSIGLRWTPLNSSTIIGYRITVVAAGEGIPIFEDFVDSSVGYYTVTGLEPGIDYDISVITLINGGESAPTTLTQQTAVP

With `CC[C@H](C)[C@H](NC(=O)CNC(=O)[C@H](CCCCN)NC(=O)[C@H](Cc1c[nH]c2ccccc12)NC(=O)[C@@H](NC(=O)[C@H](Cc1c[nH]c2ccccc12)NC(=O)[C@H](CCCCN)NC(=O)CNC(=O)[C@H](CC(N)=O)NC(=O)[C@H](CCC(=O)O)NC(=O)[C@H](Cc1c[nH]c2ccccc12)NC(=O)[C@@H](NC(=O)[C@H](Cc1c[nH]c2ccccc12)NC(=O)[C@H](CO)NC(=O)CNC(=O)[C@@H](NC(=O)[C@H](C)NC(=O)[C@H](CO)NC(=O)[C@H](CO)NC(=O)[C@H](CS)NC(=O)[C@@H](N)Cc1c[nH]cn1)C(C)C)[C@@H](C)O)[C@@H](C)O)C(=O)N[C@H](C(=O)N[C@@H](CCCNC(=N)N)C(=O)N[C@@H](CC(C)C)C(=O)N[C@@H](CCC(=O)O)C(=O)N[C@@H](CCC(N)=O)C(=O)O)[C@@H](C)CC` [Peptide 2 (fibronectin ED-B)] (H-HCSSAVGSWTWENGKWTWKGIIRLEQ-OH; N-terminus and C-terminus assumed) as the compound, how does the Kd read?
The Kd was 43 nM.
